≈ marks a conversion by molar mass, not a printed value.
Experiments:
[1] = test system: all the tested bacteria; assay: MIC and MBC, macro dilution tube method, summary over the panel; assay type: cell-based; conditions: read-out: MIC and MBC values
Description: (§1) To evaluate the antimicrobial potential of the synthesized compounds, the following reference strains of bacteria, that are economically important in foods, were employed: Gram-positive Listeria monocytogenes ATCC 7644, Staphylococcus aureus ATCC 25923, and Bacillus cereus ATCC 11778; Gram-negative Salmonella Typhimurium ATCC 14028, Escherichia coli O157: H7 NCTC 12900 and the clinically important Pseudomonas aeruginosa ATCC 15442.
(§2) The antimicrobial activity assay using the disk diffusion test was realized using the methodology that is recommended by the Clinical Laboratory Standards Institute (CLSI). The determination of the minimum inhibitory concentration (MIC) and minimum bactericidal concentration (MBC) was performed using the macro dilution tube method, in accordance with Rota et al., with modifications. Details of these assays are provided in the Supplemental Material. […]
(§3) 2.2. Determination of the minimum inhibitory concentration (MIC) and minimum bactericidal concentration
(§4) The MIC was determined using the macro dilution tube method, in accordance with Rota et al.
[5], with modifications. […]
(§5) The ABTS radical scavenging activity was determined according to the method described by Erel. Different concentrations of compounds 5a–d and 10 (10–500 μ M) were mixed with the ABTS+ solution, and the decrease in the absorbance at 734 nm was recorded.

[2] = test system: Salmonella Typhimurium ATCC 14028; assay: MIC and MBC, macro dilution tube method; assay type: cell-based; conditions: S. Typhimurium; for MBC: 10^5 CFU.mL^−1; for MIC: 10^5 CFU.mL^−1, 24 h
Description: as §1, §2, §3, §4
[5], with modifications. The tested concentrations were 20, 18, 15, 12, 10, 7 and 5 μL.mL‐1 of each compound. In a tube with 1 mL of MH broth, was inoculated 105 UFC.mL‐1, the compound in a predetermined concentration and, to facilitate the solubility, 2 drops of TWEEN 80. The mixture was incubated at 37 °C for 24 h under stirring (150 rpm). As the positive control, MH broth and inoculum concentration in 105 UFC.mL‐1 and as the negative control MH, the inoculum concentration in 105 UFC∙mL‐1 and streptomycin (10 μg) were used. MIC was defined as the lowest concentration of […]
After 24 h, tubes with no visible growth were seeded in a […] TSA‐YE tube and incubated at 37 °C for 24 h. The MBC is the lowest concentration of compound where 99.9% of the initially inoculated cells were killed. […]
2.4. Radical Scavenging Activity […]
as §5

Row | SMILES | MBC [1] [µM] | MBC [2] [mM.mL^−1] | MIC [2] [mM.mL^−1]
1 | CC(C)=CCCC(C)C/C=[N+](\C)[O-] (stereo not drawn) [5d, (E)-N,3,7-trimethyloct-6-en-1-imine oxide] | 1130 to 1260 (≈ 207 to 231 µg/mL) | – | –
2 | CC(C)=CCC[C@@H](C)C(/C=N/O)[Se]c1ccccc1 (stereo partly drawn) [compound 10, (3R,E)-3,7-dimethyl-2-(phenylselanyl)oct-6-enal oxime] | – | >0.70 | >0.70
3 | CC(C)=CCCC(C)(C/C=[N+](\C)[O-])Sc1ccccc1 (stereo not drawn) [5c, (E)-N,3,7-trimethyl-3-(phenylthio)oct-6-en-1-imine oxide] | 520 to 690 (≈ 152 to 201 µg/mL) | >0.69 | >0.69

— paper PMC5590075, “Synthesis, Antimicrobial, and Antioxidant Activities of Chalcogen-Containing Nitrone Derivatives from (R)-citronellal” (Medicines, 2017)
